What was measured:
[1] = system: HCT116 xenografted tumors
Description: For in vivo study, HCT116 cells were subcutaneously engrafted into NSG mice. After tumors reached an average size of approximately 5 mm, mice were locally treated with 1 mg/kg of FAM-labeled PS-unacet.-STAT3, PS-STAT3-K685R, or PS-acet.-STAT3 peptides (Anaspec) every day for 35 days. Twenty-four hours after the last treatment, tumors were harvested and analyzed by IF staining and 20× immersion objective on LSM 700 confocal microscope (ZEISS). Images were quantified using Zen software (ZEISS).
Supplemental Figure 5 (related to Figure 2). […]
(C to G) Subcutaneous HCT116 xenografts treated with FAM-labeled PS-unacet.-STAT3, PS-STAT3-K685R or PS-acet.-STAT3 peptides every other day at 1 mg/kg for 40 days.
(C) Retention of PS-acet.-STAT3 peptide was visualized with IF staining of tissue sections followed by confocal microscopy. n= 6 tumor tissues. Scales, 50 µm.
(E) The mRNA levels of CASP9, BIRC5 and BCL2L1 from the same tumor tissues described above were assessed by qRT-PCR. SD is shown. n= 3 independent experiments. One-way […]
(F) IF staining of cell proliferation (Ki-67) and vascularization (CD-31) markers upon peptide treatments in HCT116 tumor tissues. Scales; 50 and 100 µm (upper panels). The lower panels show the quantification of Ki-67 and CD-31. n= 6 tumor tissues.
Same protein samples were used from (D).
Aftabizadeh and Li et al., Figure S5

[2] = biological target: T1, exportin 7 (Homo sapiens, UniProt Q9UIA9); test: Immunoprecipitation of FAM-labeled peptide and Western blotting, exportin 7; type: binding; conditions: anti-FITC (FAM) immunoprecipitation, Western blotting, U251 cells
T1 construct: endogenous in cells; host or cells: U251
Description: Data are representative of 3 independent experiments (n = 3).
Whole cell lysates or tissue homogenates were prepared by using RIPA lysis buffer (50 mM Tris at pH 7.4, 150 mM NaCl, 1 mM EDTA, 0.5% NP-40, 1 mM NaF, 15% glycerol, and 20 mM β-glycerophosphate). A protease inhibitor cocktail (Mini Protease Inhibitor Cocktail; Roche) and a tyrosine phosphatase inhibitor, sodium orthovanadate (Na3VO4, 1 mM), were added freshly to the lysis buffer. Protein amounts were determined by BCA using a Thermo Fisher Scientific kit. Normalized protein amounts were subjected to an SDS-PAGE and transferred onto a nitrocellulose membrane for Western blotting. Proteins were visualized with a chemiluminescent detection kit (Pierce, Thermo Fisher Scientific). The protein levels for STAT1 (sc-346, E-23), STAT3 (sc-482, C-20), STAT5 (sc-74442, A-9), Crm1 (exportin 1) (sc-5595, H-300), CAS (exportin 2) (sc-271537, H-2), exportin 5 (sc-66885, H-300), and exportin 7 (sc-98639, H-82) were determined using antibodies from Santa Cruz Biotechnology Inc. Anti–exportin 3 (exportin T, 630622, LOS1 05-1525), anti–exportin 4 (3499-1), and anti–exportin 6 (11408-1-AP) were from MilliporeSigma, Epitomics, and Proteintech, respectively. […]

T1 sequence (Q9UIA9 whole entry): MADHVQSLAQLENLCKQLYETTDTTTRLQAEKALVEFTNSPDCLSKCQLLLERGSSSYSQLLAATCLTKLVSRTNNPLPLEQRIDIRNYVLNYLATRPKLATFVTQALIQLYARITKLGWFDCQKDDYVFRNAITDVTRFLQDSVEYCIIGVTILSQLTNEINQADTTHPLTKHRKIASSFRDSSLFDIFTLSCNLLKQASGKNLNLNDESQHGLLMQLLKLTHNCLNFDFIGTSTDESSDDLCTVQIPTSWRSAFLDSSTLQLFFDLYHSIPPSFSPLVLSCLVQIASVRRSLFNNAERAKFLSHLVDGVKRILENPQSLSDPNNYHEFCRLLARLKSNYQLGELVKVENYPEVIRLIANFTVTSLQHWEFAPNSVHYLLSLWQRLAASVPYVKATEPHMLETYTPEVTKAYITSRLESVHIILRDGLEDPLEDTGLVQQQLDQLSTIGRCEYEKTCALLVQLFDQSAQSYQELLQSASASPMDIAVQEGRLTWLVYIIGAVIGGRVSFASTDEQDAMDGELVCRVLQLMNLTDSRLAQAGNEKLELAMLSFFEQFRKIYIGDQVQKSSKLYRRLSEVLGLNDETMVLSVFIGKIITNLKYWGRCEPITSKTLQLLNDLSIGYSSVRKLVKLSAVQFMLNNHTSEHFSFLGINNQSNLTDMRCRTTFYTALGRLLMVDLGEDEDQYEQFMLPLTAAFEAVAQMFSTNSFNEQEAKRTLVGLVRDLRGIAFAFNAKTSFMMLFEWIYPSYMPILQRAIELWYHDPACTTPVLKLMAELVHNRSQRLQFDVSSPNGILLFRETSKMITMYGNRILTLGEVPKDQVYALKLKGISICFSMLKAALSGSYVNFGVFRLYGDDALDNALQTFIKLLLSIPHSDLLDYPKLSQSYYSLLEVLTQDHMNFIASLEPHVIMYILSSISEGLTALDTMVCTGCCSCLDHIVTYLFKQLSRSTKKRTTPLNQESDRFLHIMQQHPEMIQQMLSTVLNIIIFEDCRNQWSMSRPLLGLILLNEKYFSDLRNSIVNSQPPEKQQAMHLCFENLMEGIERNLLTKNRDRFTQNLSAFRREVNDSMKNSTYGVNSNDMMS

Substance: PDIPKEEAFGK685(Ac)YCRPESQEHPC-linker-T*C*C*A*T*G*A*G*C*T*T*C*C*T*G*A*T*G*C*T [PS-acet.-STAT3 peptide]
- tumor progression (proliferation marker Ki-67 and angiogenesis marker CD31) ([1]; HCT116 xenograft, 1 mg/kg local, IF staining): effectively inhibited
- STAT3 phosphorylation in tumors ([1]; HCT116 xenograft, 1 mg/kg local, immunoprecipitation and Western blotting): effectively inhibited
- transcriptional regulation (CASP9, BIRC5, BCL2L1 mRNA) in tumors ([1]; HCT116 xenograft, 1 mg/kg local, qRT-PCR): effectively inhibited
- acetylation of STAT3 in tumors ([1]; HCT116 xenograft, same samples as STAT3 phosphorylation): only moderately suppressed
- cellular retention of peptide in tumors in vivo ([1]; mouse, in vivo, 1 mg/kg): retained in tumors at significantly higher levels
- binding to exportin 7 [2]: bound
